Reference: the NIST ThermoML archive (doi:10.1016/j.jct.2016.03.021)

Assay: wn = mass fraction of the nth substance listed
Conditions: Liquid; for mass density: Vibrating tube method

NCCO [2-aminoethan-1-ol] + O
viscosity [mPa·s]
Conditions | w1 = 0.1 | w1 = 0.1001 | w1 = 0.2 | w1 = 0.3 | w1 = 0.3005 | w1 = 0.4 | w1 = 0.4001
313.15 K, 5000 kPa, Falling or rolling sphere viscometry | – | – | – | – | – | – | 2.306
313.15 K, 10000 kPa, Falling or rolling sphere viscometry | – | 0.892 | 1.182 | – | 1.649 | – | 2.319
313.15 K, 20000 kPa, Falling or rolling sphere viscometry | – | 0.896 | 1.19 | – | 1.668 | – | 2.352
313.15 K, 30000 kPa, Falling or rolling sphere viscometry | – | 0.899 | 1.197 | – | 1.686 | – | 2.384
313.15 K, 40000 kPa, Falling or rolling sphere viscometry | – | 0.902 | 1.205 | – | 1.702 | – | 2.416
313.15 K, 60000 kPa, Falling or rolling sphere viscometry | – | 0.91 | 1.219 | – | 1.735 | – | 2.479
313.15 K, 80000 kPa, Falling or rolling sphere viscometry | – | 0.918 | 1.232 | – | 1.77 | – | 2.544
313.15 K, 100000 kPa, Falling or rolling sphere viscometry | – | 0.927 | 1.249 | – | 1.804 | – | 2.609
313.15 K, 120000 kPa, Falling or rolling sphere viscometry | – | 0.936 | 1.263 | – | 1.846 | – | 2.675
333.15 K, 93 kPa, Concentric cylinders viscometry | 0.6263 | – | 0.7832 | 1.084 | – | 1.405 | –
333.15 K, 100 kPa, Falling or rolling sphere viscometry | – | 0.615 | 0.78 | – | 1.061 | – | 1.389
333.15 K, 101 kPa, Falling or rolling sphere viscometry | 0.615 | – | 0.78 | 1.061 | – | 1.389 | –
333.15 K, 5000 kPa, Falling or rolling sphere viscometry | – | 0.614 | 0.788 | – | 1.067 | – | 1.401
333.15 K, 10000 kPa, Falling or rolling sphere viscometry | – | 0.617 | 0.792 | – | 1.075 | – | 1.41
333.15 K, 20000 kPa, Falling or rolling sphere viscometry | – | 0.622 | 0.799 | – | 1.089 | – | 1.434
333.15 K, 30000 kPa, Falling or rolling sphere viscometry | – | 0.625 | 0.807 | – | 1.103 | – | 1.453

mass density [kg/m3]
Conditions | w1 = 0.1001 | w1 = 0.2 | w1 = 0.3005 | w1 = 0.4
313.15 K, 5000 kPa | 997.9 | 1001 | 1005.1 | 1009.3
313.15 K, 10000 kPa | 1000 | 1002.9 | 1007 | 1011.2
313.15 K, 15000 kPa | 1002 | 1004.8 | 1008.8 | 1012.9
313.15 K, 20000 kPa | 1004 | 1006.7 | 1010.6 | 1014.7
313.15 K, 30000 kPa | 1008.1 | 1010.5 | 1014.3 | 1018.2
313.15 K, 40000 kPa | 1012.1 | 1014.3 | 1017.9 | 1021.7
313.15 K, 50000 kPa | 1015.9 | 1017.9 | 1021.3 | 1025.1
313.15 K, 60000 kPa | 1019.8 | 1021.5 | 1024.8 | 1028.4
313.15 K, 70000 kPa | 1023.4 | 1025 | 1028.2 | 1031.7
313.15 K, 80000 kPa | 1027 | 1028.5 | 1031.4 | 1034.8
313.15 K, 90000 kPa | 1030.6 | 1031.8 | 1034.5 | 1037.8
313.15 K, 100000 kPa | 1034.2 | 1035.1 | 1037.9 | 1041.1
313.15 K, 110000 kPa | 1037.6 | 1038.4 | 1041 | 1044
313.15 K, 120000 kPa | 1041.1 | 1041.8 | 1044.1 | 1047
333.15 K, 100 kPa | 986.3 | 988.8 | 992 | 995.3
333.15 K, 500 kPa | 986.5 | 988.9 | 992.3 | 995.6
333.15 K, 1000 kPa | 986.7 | 989.1 | 992.4 | 995.8
333.15 K, 2000 kPa | 987.1 | 989.5 | 992.8 | 996.2
333.15 K, 5000 kPa | 988.4 | 990.7 | 994 | 997.3
333.15 K, 10000 kPa | 990.5 | 992.7 | 996 | 999.3
333.15 K, 15000 kPa | 992.6 | 994.7 | 997.9 | 1001.1
333.15 K, 20000 kPa | 994.6 | 996.6 | 999.7 | 1003
333.15 K, 30000 kPa | 998.6 | 1000.5 | – | –
